Experimental data taken from PubChem BioAssay AID252 (DTP/NCI, 2004).
Several values for one entry are separate records, joined by “and”; a condition that tells them apart may be missing. Equal entries are not always repeated. Inconclusive results and toxic doses are left out.

Test system: BDF1 mice, intracerebral L1210 leukemia, survival T/C
Test: NCI In Vivo Anticancer Drug Screen. Data for tumor model L1210 Leukemia (intracerebral) in B6D2F1 (BDF1) mice
Details: endpoint: mean survival time, higher = longer survival
Summary of the method: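 Tumour was transplanted, animals received compound or vehicle, then survival in each group was measured and treated divided by control.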

[1] = dose: 25.0 mg/kg/injection, schedule: Q01DX001 (ip), vehicle: saline

With `C=CC(CN1CC1)OC(C)=O` (centres undefined) the T/C (dose: 2.5 mg/kg/injection, schedule: Q01DX Z (ip), vehicle: saline) was 119 % of control, the T/C (dose: 11.0 mg/kg/injection, schedule: Q01DX001 (ip), vehicle: saline) was 113 % of control and 117 % of control and the T/C (dose: 17.0 mg/kg/injection, schedule: Q01DX001 (ip), vehicle: saline) was 117 % of control. For the same compound, the T/C [1] was 119 % of control, the T/C (dose: 25.0 mg/kg/injection, schedule: Q01DX Z (ip), vehicle: saline) was 120 % of control and the T/C (dose: 30.0 mg/kg/injection, schedule: Q01DX Z (ip), vehicle: saline) was 105 % of control.

For `O=NN(CCCl)C(=O)Nc1ccc(Cn2ccc(=O)[nH]c2=O)cc1`, the T/C (dose: 18.0 mg/kg/injection, schedule: Q01DX001 (ip), vehicle: carboxymethylcellulose (CMC)) was 109 % of control, the T/C (dose: 26.0 mg/kg/injection, schedule: Q01DX001 (ip), vehicle: carboxymethylcellulose (CMC)) was 110 % of control and the T/C (dose: 40.0 mg/kg/injection, schedule: Q01DX001 (ip), vehicle: carboxymethylcellulose (CMC)) was 109 % of control. The T/C (dose: 60.0 mg/kg/injection, schedule: Q01DX001 (ip), vehicle: carboxymethylcellulose (CMC)) was 122 % of control and the T/C (dose: 90.0 mg/kg/injection, schedule: Q01DX001 (ip), vehicle: carboxymethylcellulose (CMC)) was 119 % of control.

`CCOC(=O)c1ccc(NC(=O)N(CCCl)N=O)cc1` was tested, and the T/C (dose: 4.0 mg/kg/injection, schedule: Q01DX001 (ip), vehicle: carboxymethylcellulose (CMC)) was 108 % of control, the T/C (dose: 6.0 mg/kg/injection, schedule: Q01DX001 (ip), vehicle: carboxymethylcellulose (CMC)) was 107 % of control and the T/C (dose: 9.0 mg/kg/injection, schedule: Q01DX001 (ip), vehicle: carboxymethylcellulose (CMC)) was 108 % of control. The T/C (dose: 13.5 mg/kg/injection, schedule: Q01DX001 (ip), vehicle: carboxymethylcellulose (CMC)) was 113 % of control.

For `CCCCCCCCSc1ncnc2c1ncn2CC`, the T/C (dose: 62.0 mg/kg/injection, schedule: Q01DX015 (ip), vehicle: carboxymethylcellulose (CMC)) was 97 % of control, the T/C (dose: 125.0 mg/kg/injection, schedule: Q01DX015 (ip), vehicle: carboxymethylcellulose (CMC)) was 103 % of control and the T/C (dose: 250.0 mg/kg/injection, schedule: Q01DX015 (ip), vehicle: carboxymethylcellulose (CMC)) was 116 % of control. The T/C (dose: 500.0 mg/kg/injection, schedule: Q01DX015 (ip), vehicle: carboxymethylcellulose (CMC)) was 94 % of control.

`O=C1C(N2CC2)=C(N2CC2)C(=O)C(N2CC2)=C1N1CC1` was tested, and the T/C (dose: 0.02 mg/kg/injection, schedule: Q01DX009 (ip), vehicle: saline) was 102 % of control, the T/C (dose: 0.04 mg/kg/injection, schedule: Q01DX009 (ip), vehicle: saline) was 120 % of control and the T/C (dose: 0.16 mg/kg/injection, schedule: Q01DX009 (ip), vehicle: saline) was 112 % of control.

For `O=NN(CCCl)C(=O)N[C@@H]1CCCC[C@H]1NC(=O)N(CCCl)N=O`, the T/C (dose: 67.0 mg/kg/injection, schedule: Q01DX001 (ip), vehicle: carboxymethylcellulose (CMC)) was 118 % of control, the T/C (dose: 72.0 mg/kg/injection, schedule: Q01DX001 (ip), vehicle: carboxymethylcellulose (CMC)) was 124 % of control and the T/C (dose: 100.0 mg/kg/injection, schedule: Q01DX001 (ip), vehicle: carboxymethylcellulose (CMC)) was 124 % of control. For the same compound, the T/C (dose: 150.0 mg/kg/injection, schedule: Q01DX001 (ip), vehicle: carboxymethylcellulose (CMC)) was 162 % of control and the T/C (dose: 240.0 mg/kg/injection, schedule: Q01DX001 (ip), vehicle: carboxymethylcellulose (CMC)) was 166 % of control.

In the case of `O=NN(CCCl)C(=O)NCCCl`, the T/C (dose: 2.0 mg/kg/injection, schedule: Q01DX009 (ip), vehicle: saline) is reported as 122 % of control, the T/C (dose: 3.0 mg/kg/injection, schedule: Q04DX003 (ip), vehicle: saline) is reported as 151 % of control and the T/C (dose: 3.7 mg/kg/injection, schedule: Q01DX001 (ip), vehicle: other) is reported as 114 % of control. For the same compound, the T/C (dose: 4.0 mg/kg/injection, schedule: Q01DX009 (ip), vehicle: other) was 174 % of control, the T/C (dose: 4.0 mg/kg/injection, schedule: Q01DX009 (ip), vehicle: saline) was 154 % of control and the T/C (dose: 5.0 mg/kg/injection, schedule: Q01DX001 (ip), vehicle: other) was 117 % of control. For the same compound, the T/C (dose: 5.0 mg/kg/injection, schedule: Q01DX001 (ip), vehicle: saline) was 121 % of control, the T/C (dose: 6.0 mg/kg/injection, schedule: Q04DX003 (ip), vehicle: saline) was 173 % of control and the T/C (dose: 7.0 mg/kg/injection, schedule: Q01DX001 (ip), vehicle: other) was 119 % of control. For the same compound, the T/C (dose: 8.0 mg/kg/injection, schedule: Q01DX005 (ip), vehicle: saline) was 175 % of control, the T/C (dose: 8.0 mg/kg/injection, schedule: Q01DX009 (ip), vehicle: other) was 225 % of control and the T/C (dose: 8.0 mg/kg/injection, schedule: Q01DX009 (ip), vehicle: saline) was 197 % of control. For the same compound, the T/C (dose: 8.4 mg/kg/injection, schedule: Q01DX001 (ip), vehicle: saline) was 117 % of control and 122 % of control, the T/C (dose: 9.75 mg/kg/injection, schedule: Q01DX001 (ip), vehicle: saline) was 150 % of control and 153 % of control and 173 % of control and the T/C (dose: 10.0 mg/kg/injection, schedule: Q01DX001 (oral), vehicle: saline) was 120 % of control. For the same compound, the T/C (dose: 11.0 mg/kg/injection, schedule: Q04DX003 (ip), vehicle: saline + alcohol) was 203 % of control, the T/C (dose: 12.0 mg/kg/injection, schedule: Q04DX003 (ip), vehicle: saline) was 250 % of control and the T/C (dose: 13.0 mg/kg/injection, schedule: Q01DX001 (ip), vehicle: saline) was 219 % of control and 284 % of control. The T/C (dose: 14.0 mg/kg/injection, schedule: Q01DX001 (sc), vehicle: saline) was 186 % of control, the T/C (dose: 15.0 mg/kg/injection, schedule: Q01DX001 (ip), vehicle: other) was 153 % of control and 155 % of control and the T/C (dose: 15.0 mg/kg/injection, schedule: Q01DX001 (ip), vehicle: saline) was 175 % of control. The T/C (dose: 16.0 mg/kg/injection, schedule: Q01DX009 (ip), vehicle: other) was 123 % of control, the T/C (dose: 16.0 mg/kg/injection, schedule: Q01DX009 (ip), vehicle: saline) was 103 % of control and the T/C (dose: 19.5 mg/kg/injection, schedule: Q01DX001 (ip), vehicle: saline) was 197 % of control and 202 % of control and 226 % of control. The T/C (dose: 19.7 mg/kg/injection, schedule: Q01DX001 (oral), vehicle: saline) was 217 % of control and 250 % of control (2×), the T/C (dose: 20.0 mg/kg/injection, schedule: Q01DX001 (ip), vehicle: other) was 174 % of control and the T/C (dose: 20.0 mg/kg/injection, schedule: Q01DX001 (oral), vehicle: saline) was 159 % of control and 172 % of control. For the same compound, the T/C (dose: 22.0 mg/kg/injection, schedule: Q04DX003 (ip), vehicle: saline + alcohol) was 276 % of control, the T/C (dose: 23.0 mg/kg/injection, schedule: Q01DX001 (sc), vehicle: saline) was 228 % of control and the T/C (dose: 24.0 mg/kg/injection, schedule: Q01DX001 (ip), vehicle: saline) was 236 % of control. For the same compound, the T/C [1] was 263 % of control and 357 % of control, the T/C (dose: 25.0 mg/kg/injection, schedule: Q01DX001 (oral), vehicle: saline) was 261 % of control and the T/C (dose: 29.0 mg/kg/injection, schedule: Q01DX001 (ip), vehicle: saline) was 266 % of control and 297 % of control. For the same compound, the T/C (dose: 30.0 mg/kg/injection, schedule: Q01DX001 (ip), vehicle: saline) was 225 % of control and 440 % of control, the T/C (dose: 31.0 mg/kg/injection, schedule: Q01DX001 (ip), vehicle: other) was 246 % of control and 269 % of control and the T/C (dose: 39.0 mg/kg/injection, schedule: Q01DX001 (sc), vehicle: saline) was 241 % of control. For the same compound, the T/C (dose: 39.5 mg/kg/injection, schedule: Q01DX001 (oral), vehicle: saline) was 269 % of control and 387 % of control and 405 % of control, the T/C (dose: 40.0 mg/kg/injection, schedule: Q01DX001 (ip), vehicle: other) was 333 % of control and the T/C (dose: 44.0 mg/kg/injection, schedule: Q04DX003 (ip), vehicle: saline + alcohol) was 87 % of control. For the same compound, the T/C (dose: 48.0 mg/kg/injection, schedule: Q01DX001 (ip), vehicle: saline) was 296 % of control, the T/C (dose: 50.0 mg/kg/injection, schedule: Q01DX001 (ip), vehicle: saline) was 150 % of control and the T/C (dose: 50.0 mg/kg/injection, schedule: Q01DX001 (oral), vehicle: saline) was 238 % of control. The T/C (dose: 60.0 mg/kg/injection, schedule: Q01DX001 (ip), vehicle: saline) was 112 % of control, the T/C (dose: 62.0 mg/kg/injection, schedule: Q01DX001 (ip), vehicle: other) was 117 % of control and the T/C (dose: 65.0 mg/kg/injection, schedule: Q01DX001 (sc), vehicle: saline) was 162 % of control. For the same compound, the T/C (dose: 79.0 mg/kg/injection, schedule: Q01DX001 (oral), vehicle: saline) was 172 % of control and 175 % of control.

`CCNC1=C(N2CC2)C(=O)C(NCC)=C(N2CC2)C1=O` was tested, and the T/C (dose: 0.37 mg/kg/injection, schedule: Q01DX009 (ip), vehicle: saline) was 101 % of control and 100 % of control, the T/C (dose: 0.75 mg/kg/injection, schedule: Q01DX009 (ip), vehicle: saline) was 104 % of control and 117 % of control and the T/C (dose: 1.5 mg/kg/injection, schedule: Q01DX009 (ip), vehicle: saline) was 124 % of control.

`O=NN(CCCl)C(=O)Nc1ccc(Oc2ccc(NC(=O)N(CCCl)N=O)cc2)cc1` was tested, and the T/C (dose: 440.0 mg/kg/injection, schedule: Q01DX001 (ip), vehicle: carboxymethylcellulose (CMC)) was 116 % of control, the T/C (dose: 670.0 mg/kg/injection, schedule: Q01DX001 (ip), vehicle: carboxymethylcellulose (CMC)) was 119 % of control and the T/C (dose: 1500.0 mg/kg/injection, schedule: Q01DX001 (ip), vehicle: carboxymethylcellulose (CMC)) was 122 % of control.
